In assay [1] the target is T1, Full length DGKα (D21-10BG, SignalChem) (Homo sapiens, UniProt P23743).
T1 construct: Full length DGKα (D21-10BG, SignalChem); purchased SignalChem D21-10BG
In words: Biochemical DGK IC50 assay (ADP-Glo, lipid micelle substrate), DGKα. The following applies: 1 hour preincubation, 1 hour reaction, room temperature. The procedure, abridged: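 Full-length human DGKα with DAG/PS lipid micelle substrate (in octyl glucoside buffer), reacted 1 h at room temperature in 50 mM HEPES, 10 mM MgCl2, 0.01 mM CaCl2, 0.1 mM Na3VO4, 0.01% BSA, 0.005% Tween-20. ADP formed read by ADP-Glo luminescence; IC50 from inhibition across increasing compound concentrations.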
In general terms: ADP-Glo first removes unused ATP, then detects ADP through luciferase.

Assay [2] addresses T2, Full length DGKζ (in-house protein M1-V929) (Homo sapiens, UniProt Q13574).
T2 construct: His (N); TEV site (N); made in house; host or cells: Sf9 insect cells (Bac-to-Bac baculovirus)
As to the kind of experiment: Biochemical DGK IC50 assay (ADP-Glo, lipid micelle substrate), DGKζ. The following applies: 1 hour preincubation, 1 hour reaction, room temperature. The procedure, abridged:
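Full-length human DGKζ (M1-V929, His-TEV tagged, Sf9 baculovirus-expressed) with DAG/PS lipid micelle substrate in octyl glucoside, at room temperature in 50 mM HEPES, 10 mM MgCl2, 0.01 mM CaCl2 buffer.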

We go through twelve compounds from US20260125378A2, “Heterocyclic Compounds” (BeOne Medicines I GmbH, priority 2023, published 2026).

Structures are written as SMILES. pIC50: −log10 of the molar value.

T1 sequence (P23743 whole entry): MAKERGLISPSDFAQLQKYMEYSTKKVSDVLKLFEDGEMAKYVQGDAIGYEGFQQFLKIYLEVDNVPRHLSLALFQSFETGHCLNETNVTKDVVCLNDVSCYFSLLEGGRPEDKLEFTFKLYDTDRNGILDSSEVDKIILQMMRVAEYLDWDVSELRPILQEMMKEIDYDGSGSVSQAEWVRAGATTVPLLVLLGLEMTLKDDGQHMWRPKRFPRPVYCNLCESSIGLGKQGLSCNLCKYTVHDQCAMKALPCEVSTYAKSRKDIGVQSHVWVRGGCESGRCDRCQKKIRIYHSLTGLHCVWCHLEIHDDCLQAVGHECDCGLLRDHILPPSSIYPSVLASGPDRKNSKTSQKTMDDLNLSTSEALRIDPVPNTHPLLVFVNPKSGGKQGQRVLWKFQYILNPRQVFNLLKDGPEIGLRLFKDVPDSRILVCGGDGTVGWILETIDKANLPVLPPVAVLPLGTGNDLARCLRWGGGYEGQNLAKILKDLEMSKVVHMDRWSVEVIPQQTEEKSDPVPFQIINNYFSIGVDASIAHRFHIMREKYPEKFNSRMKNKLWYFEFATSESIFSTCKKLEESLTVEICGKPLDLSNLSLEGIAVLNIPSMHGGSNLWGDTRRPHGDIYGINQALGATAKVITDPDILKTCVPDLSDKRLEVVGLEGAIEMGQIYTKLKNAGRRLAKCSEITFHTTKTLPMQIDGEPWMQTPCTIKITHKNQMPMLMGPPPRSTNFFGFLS
T2 sequence (Q13574 1-929 isoform Q13574-4): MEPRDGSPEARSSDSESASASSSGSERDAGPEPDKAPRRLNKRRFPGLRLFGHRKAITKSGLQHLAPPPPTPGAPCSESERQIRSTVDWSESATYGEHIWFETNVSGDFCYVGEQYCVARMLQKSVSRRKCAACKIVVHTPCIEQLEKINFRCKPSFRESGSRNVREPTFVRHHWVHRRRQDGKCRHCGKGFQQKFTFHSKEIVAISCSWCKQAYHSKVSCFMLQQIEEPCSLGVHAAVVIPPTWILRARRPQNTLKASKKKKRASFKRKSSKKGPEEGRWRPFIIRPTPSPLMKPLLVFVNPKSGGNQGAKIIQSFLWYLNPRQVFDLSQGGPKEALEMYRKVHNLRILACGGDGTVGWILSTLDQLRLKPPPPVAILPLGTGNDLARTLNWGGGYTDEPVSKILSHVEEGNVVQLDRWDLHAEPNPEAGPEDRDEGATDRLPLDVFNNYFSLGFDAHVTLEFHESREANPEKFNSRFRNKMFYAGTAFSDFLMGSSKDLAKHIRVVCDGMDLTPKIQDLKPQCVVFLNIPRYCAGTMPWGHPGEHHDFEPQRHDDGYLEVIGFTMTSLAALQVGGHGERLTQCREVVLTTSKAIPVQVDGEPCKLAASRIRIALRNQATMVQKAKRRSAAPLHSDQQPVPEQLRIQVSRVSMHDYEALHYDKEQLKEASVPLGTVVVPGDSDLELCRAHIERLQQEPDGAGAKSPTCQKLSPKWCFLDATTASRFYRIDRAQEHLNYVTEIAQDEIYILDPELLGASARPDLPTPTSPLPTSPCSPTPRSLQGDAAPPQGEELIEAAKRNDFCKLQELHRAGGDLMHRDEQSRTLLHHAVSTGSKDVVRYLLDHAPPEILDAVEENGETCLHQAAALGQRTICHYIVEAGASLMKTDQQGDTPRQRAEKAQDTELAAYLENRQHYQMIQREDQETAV

As a reminder, the pIC50 is the IC50 on a negative log10 scale, so that one unit is a factor of ten. High values mean a small IC50, low ones a large IC50. For the compound `CC[C@@H]1CN(c2nc(=O)n(C)c3c2nc(CC#N)n3C)[C@@H](C)CN1C(C)c1ccc2c(c1)OC(C)(C)CO2` (single isomer, unassigned) [Compound A63a], the pIC50 in assay [1] was 4.99; in assay [2], 8.70.
On the same counts, the results for `CC(c1cccnc1C(F)(F)F)N1C[C@H](C)N(c2cc(=O)n(C)c3c2nc(CC#N)n3C)C[C@H]1C` (single isomer, unassigned) [Compound A7b] are 4.01 and 7.46.
For `CCn1c(CC#N)nc2c(N3C[C@@H](C)N(C(C)c4cc(F)c5c(n4)OC(C)(C)CO5)C[C@@H]3C)nc(=O)n(C)c21` (single isomer, unassigned) [Compound A163a] the same measures were under 3.82 and 7.89.
For `CCn1c(CC#N)nc2c(N3C[C@@H](C)N(C(C)c4cccc(C(F)(F)F)c4)C[C@@H]3C)nc(=O)n(C)c21` (single isomer, unassigned) [Compound A42a] the same measures were 4.10 and 7.62.
For the compound `CCn1c(CC#N)nc2c(N3C[C@@H](C)N(C(C)c4cccc(C(F)(F)F)n4)C[C@@H]3C)nc(=O)n(C)c21` (single isomer, unassigned) [Compound A118a], the pIC50 in assay [1] was under 3.82; in assay [2], 5.32.
On the same counts, the results for `CC(c1ccc2c(c1)OC(F)(F)C(F)(F)O2)N1C[C@H](C)N(c2nc(=O)n(C)c3c2nc(CC#N)n3C)C[C@H]1C` (single isomer, unassigned) [Compound A79a] are 5.14 and 7.42.
On the same counts, the results for `CCn1c(CC#N)nc2c(N3C[C@@H](C)N(C(C)c4ccc5c(c4)C(=O)N(C)C5)C[C@@H]3C)nc(=O)n(C)c21` (stereo partly drawn) [Compound A100, 2-(6-((2S,5R)-2,5-dimethyl-4-(1-(2-methyl-3-oxoisoindolin-5-yl)ethyl)piperazin-1-yl)-9-ethyl-3-methyl-2-oxo-3,9-dihydro-2H-purin-8-yl)acetonitrile] are under 3.82 and 5.39.
For `CCn1c(CC#N)nc2c(N3C[C@@H](C)N(C(C)c4ccc5c(c4)C(C)(C)N(C)C5=O)C[C@@H]3C)nc(=O)n(C)c21` (stereo partly drawn) [Compound A84, 2-(6-((2S,5R)-2,5-dimethyl-4-(1-(2,3,3-trimethyl-1-oxoisoindolin-5-yl)ethyl)piperazin-1-yl)-9-ethyl-3-methyl-2-oxo-3,9-dihydro-2H-purin-8-yl)acetonitrile] the same measures were under 3.82 and 6.63.
For the compound `CC(c1ccc2c(c1)OC(C)(C)CO2)N1C[C@H](C)N(c2c(F)c(=O)n(C)c3c2nc(CC#N)n3C)C[C@H]1C` (single isomer, unassigned) [Compound A19a], the pIC50 was 4.56 in assay [1] and 8.55 in assay [2].
For the compound `CCc1nc2cc(C(C)N3C[C@H](C)N(c4nc(=O)n(C)c5c4nc(CC#N)n5CC)C[C@H]3C)ccc2s1` (single isomer, unassigned) [Compound A95b], the pIC50 in assay [1] was 3.97; in assay [2] it was 6.26.
Turning to `CC(c1ccc(F)cc1C(F)(F)F)N1C[C@H](C)N(c2cc(=O)n(C)c3[nH]c(CC#N)nc23)C[C@H]1C` (stereo partly drawn) [Compound A9, 2-(7-((2S,5R)-4-(1-(4-fluoro-2-(trifluoromethyl)phenyl)ethyl)-2,5-dimethylpiperazin-1-yl)-4-methyl-5-oxo-4,5-dihydro-3H-imidazo[4,5-b]pyridin-2-yl)acetonitrile], the pIC50 in assay [1] is under 5.00; in assay [2], 6.58.
Regarding `CCn1c(CC#N)nc2c(N3C[C@@H](C)N(C(C)c4ccc5c(c4)C(=O)N(C(C)C)C5=O)C[C@@H]3C)nc(=O)n(C)c21` (stereo partly drawn) [Compound A178, 2-(9-ethyl-6-((2S,5R)-4-(1-(2-isopropyl-1,3-dioxoisoindolin-5-yl)ethyl)-2,5-dimethylpiperazin-1-yl)-3-methyl-2-oxo-3,9-dihydro-2H-purin-8-yl)acetonitrile], the values for the negative-log IC50 (pIC50) in assay [1] and in assay [2] were 4.03 and 7.82, respectively.
